# Tests used:
# [1] = reported in literature (Gotoh 1992; Noguchi 1997); cited from earlier work
# [2] = tested on: cholesterol esters contained in plasma samples; assay: Amounts of CEOOHs and CEOHs produced in AAPH-initiated oxidation of plasma samples with added antioxidant; type: biochemical; settings: antioxidant added to human plasma at various concentrations five minutes before AAPH (10 mM), 37° C., 8 hours; endogenous α-tocopherol present; FIG. 4
# Procedure: Assay reproducibility was tested for oxidation products of cholesterol esters contained in plasma samples obtained from a normal human subject. In this test, the cholesterol esters were regarded as oxidizable substrates.
# Blood was collected in heparin from one normal human subject who gave informed consent to prepare a plasma pool.
# 1.1 mL portions of this plasma sample were put into nine test tubes and were frozen-stored at −80° C.
# Three test tubes A, B and C containing the frozen plasma were warmed to 37° C. for 5 minutes to thaw the frozen plasma. After thawing, the test tubes were kept in ice.
# 10 μL of an aqueous solution of AAPH (available from Wako Pure Chemical Industries, Ltd.; Lot No. DWF 1183) was added to 300 μL of plasma removed from each test tube at an AAPH concentration of 10 mM. Then, they were warmed to 37° C. to initiate an oxidation reaction.
# After maintaining at 37° C. for 8 hours, the 3 vessels each containing the reaction solution were immersed in ice to stop the reaction. 1 mL of a methanol containing 0.02% acetic acid and 5 mL of hexane were added to 100 μL of each reaction solution to extract lipids. 4 mL of the hexane extract removed from each reaction solution was concentrated on Speed Vac (AES1010 available from Thermo Savant), and each concentrate was dissolved in 200 μL of isopropyl alcohol. […]
Structure (SMILES),"rate of the reaction with linoleic acid peroxy radicals, expressed as ratio to the rate of the reaction of α-tocopherol [1]",amounts of CEOOHs and CEOHs produced with the increase of the concentration of the antioxidant [2]
"CCCCCC1(CCCCC)Cc2c(cc(C(C)(C)C)c(O)c2C(C)(C)C)O1 [BO-653, 4,6-di-t-butyl-5-hydroxy-2,2-di-n-pentyl-2,3-dihydrobenzofuran]",1/2,significantly decrease
Cc1c(C)c2c(c(C)c1O)CC[C@@](C)(CCC[C@H](C)CCC[C@H](C)CCCC(C)C)O2 [α-tocopherol],,significantly increase
